{"source": "patent US9656949B2", "about": "“Substituted carboxylic acid derivatives as aggrecanase inhibitors for the treatment of osteoarthritis” (MERCK PATENT GMBH, priority 2013, dated 2017)", "key": {"[1]": {"target": "T1, human recombinant AdamTS-5 (Homo sapiens, UniProt Q9UNA0)", "T1 construct": "purchased R&D systems, Wiesbaden, Germany", "T1 sequence (Q9UNA0 262-930)": "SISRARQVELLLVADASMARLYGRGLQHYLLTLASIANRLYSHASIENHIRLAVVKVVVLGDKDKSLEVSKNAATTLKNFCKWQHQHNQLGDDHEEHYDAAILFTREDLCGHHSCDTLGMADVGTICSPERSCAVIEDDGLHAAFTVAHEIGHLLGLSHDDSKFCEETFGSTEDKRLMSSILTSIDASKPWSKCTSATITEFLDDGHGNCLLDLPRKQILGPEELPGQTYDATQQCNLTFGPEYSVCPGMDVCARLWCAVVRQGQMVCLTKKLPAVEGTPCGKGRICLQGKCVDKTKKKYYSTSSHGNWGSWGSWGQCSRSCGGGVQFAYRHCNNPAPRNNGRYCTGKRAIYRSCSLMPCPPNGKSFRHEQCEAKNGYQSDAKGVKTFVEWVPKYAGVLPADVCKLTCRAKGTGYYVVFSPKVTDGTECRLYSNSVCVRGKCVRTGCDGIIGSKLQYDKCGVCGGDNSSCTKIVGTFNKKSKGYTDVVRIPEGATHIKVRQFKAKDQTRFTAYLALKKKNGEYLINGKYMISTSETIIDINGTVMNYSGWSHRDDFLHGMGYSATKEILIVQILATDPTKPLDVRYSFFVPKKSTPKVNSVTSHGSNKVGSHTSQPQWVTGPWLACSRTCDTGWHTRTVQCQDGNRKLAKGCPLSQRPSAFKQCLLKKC", "assay": "Biochemical activity testing of ADAMTS-5: aggrecan peptide cleavage assay (AlphaScreen)", "conditions": "4.5 nM human recombinant AdamTS-5, biotinylated 43mer aggrecan peptide, 180 min at 37° C.; read-out: IC50 [ADAM-NTS5]M", "procedure": "ADAMTS-5 is a metallo protease with glutamyl-endoprotease activity and cleaves aggrecan core protein at E373-A374 in the interglobular domain. To fully analyse the inhibitory potential of compounds on AdamTS-5 activity an Alphascreen® assay with a biotinylated 43mer aggrecan oligopeptide as substrate was performed. Cleavage by ADAMTS-5 caused production of a neoepitop N-terminus ARGS at the C-terminal fragment. The detection of this product is performed with streptavidin-AlphaScreen® donor beads binding to the biotin label and an anti-neoepitop (“ARGSV”) antibody that anchors anti-mouse IgG-coated AlphaLisa® acceptor beads to the other end of the generated fragment. Thereby, donor and acceptor beads get in proximity and a luminescence Alphascreen® signal is generated via the release of singlet oxygen. The cleavage activity was detectable directly by the increase in Alphascreen® signal.\nThe aggrecan peptide cleavage assay was performed as 384 well AlphaScreen® (Perkin Elmer) assay format in Perkin Elmer 384 AlphaPlate (proxiplate) shallow well microtiter plates and was used for high throughput screen in a total assay volume of 10 μl. 4.5 nM human recombinant AdamTS-5 (R&D systems, Wiesbaden, Germany) and 30 nM biotinylated peptide […]-K(bio) (custom-made, Biosynthan, Berlin, Germany) as substrate were incubated in a total volume of 6 μl (100 mM Tris/HCl, 150 mM NaCl, 10 mM CaCl2, 0.05% Brij®-35, 1% DMSO, 0.084% BSA, pH 7.5) in the absence or presence of the test compound (10 dilution concentrations) for 180 min at 37° C. The reaction was stopped and the first detection step performed by the addition of 2 μl detection solution 1 (48 mM EDTA, 8 nM aggrecan antibody N-term neoepitope ARG, mouse monoclonal BC3 antibody (MDBioproducts, Egg, Switzerland), 100 μg/ml Streptavidin Alphascreen® donor beads (Perkin Elmer, Rodgau, Germany) in 100 mM Tris/HCl, 150 mM NaCl, 0.05% Brij®-35, 0.1% BSA, pH 7.5). After an one-hour incubation at 37° C. 2 μl of the second detection solution (25 μg/ml anti-mouse AlphaLisa® acceptor beads (Perkin Elmer, Rodgau, Germany) in 100 mM Tris/HCl, 150 mM NaCl, 0.05% Brij®-35, 0.1% BSA, pH 7.5 were added. The plates were incubated for […] in the dark.\nThe AlphaScreen signal was measured with an Envision multimode reader (Perkin Elmer LAS Germany GmbH) with the Alphascreen protocol from Perkin Elmer (laser mode) emission wavelength 570 nm. The full value used was the inhibitor-free reaction. For the zero value a pharmacological reference was used. The inhibitory values (IC50) for the compounds were determined using either the program Symyx Assay Explorer® or Condosseo® from GeneData."}, "Solubility pH7.4": {"assay": "Solubility pH7.4", "format": "physicochemical", "conditions": "pH 7.4, aqueous buffer"}}, "note": "pIC50: −log10 of the molar value."}
{"smiles": "C[C@@H](C[C@H](NC(=O)N1CCN(c2ccccc2)CC1)C(=O)NC(C)(C)Cc1ccc(F)cc1)C(=O)O", "note": "[Compound 15, (2S,4S)-4-[2-(4-Fluoro-phenyl)-1,1-dimethyl-ethylcarbamoyl]-2-methyl-4-[(4-phenyl-piperazine-1-carbonyl)-amino]-butyric acid]", "values": [{"measurement": "pIC50", "setting": "[1]", "result": 6.44}, {"measurement": "solubility", "setting": "Solubility pH7.4", "result": 924, "unit": "µg/mL"}]}
{"smiles": "C[C@@H](C[C@H](NC(=O)c1ccc(-c2ccccc2)cn1)C(=O)NC(C)(C)Cc1ccc(F)cc1)C(=O)O", "note": "[Compound 13, 4-[2-(4-Fluoro-phenyl)-1,1-dimethyl-ethylcarbamoyl]-2-methyl-4-[(5-phenyl-pyridine-2-carbonyl)-amino]-butyric acid]", "values": [{"measurement": "pIC50", "setting": "[1]", "result": 6.48}, {"measurement": "solubility", "setting": "Solubility pH7.4", "result": 855, "unit": "µg/mL"}]}
{"smiles": "C[C@@H](C[C@H](NC(=O)c1ccc(-c2ccn(C)n2)cc1)C(=O)NC(C)(C)Cc1ccc(F)cc1)C(=O)O", "note": "[Compound 9, (2S,4S)-4-[2-(4-Fluoro-phenyl)-1,1-dimethyl-ethylcarbamoyl]-2-methyl-4-[4-(1-methyl-1H-pyrazol-3-yl)-benzoylamino]-butyric acid]", "values": [{"measurement": "pIC50", "setting": "[1]", "result": 6.74}, {"measurement": "solubility", "setting": "Solubility pH7.4", "result": 798, "unit": "µg/mL"}]}
{"smiles": "Cc1cnc(-c2ccc(C(=O)N[C@@H](C[C@H](C)C(=O)O)C(=O)NC(C)(C)Cc3ccc(F)cc3)cc2)s1", "note": "[Compound 19, (2S,4S)-4-[2-(4-Fluoro-phenyl)-1,1-dimethyl-ethylcarbamoyl]-2-methyl-4-[4-(5-methyl-thiazol-2-yl)-benzoylamino]-butyric acid]", "values": [{"measurement": "pIC50", "setting": "[1]", "result": 5.92}, {"measurement": "solubility", "setting": "Solubility pH7.4", "result": 637, "unit": "µg/mL"}]}
{"smiles": "CC(Cc1ccc(F)cc1)NC(=O)[C@H](C[C@H](C)C(=O)O)NC(=O)c1ccc(-c2ccccc2)cc1", "note": "(single isomer, unassigned) [Compound 17]", "values": [{"measurement": "pIC50", "setting": "[1]", "result": 6.28}, {"measurement": "solubility", "setting": "Solubility pH7.4", "result": 303, "unit": "µg/mL"}]}
{"smiles": "C[C@@H](C[C@H](NC(=O)c1ccc(-c2cccnc2)cc1)C(=O)NC(C)(C)Cc1ccc(F)cc1)C(=O)O", "note": "[Compound 16, (2S,4S)-4-[2-(4-Fluoro-phenyl)-1,1-dimethyl-ethylcarbamoyl]-2-methyl-4-(4-pyridin-3-yl-benzoylamino)-butyric acid]", "values": [{"measurement": "pIC50", "setting": "[1]", "result": 6.41}, {"measurement": "solubility", "setting": "Solubility pH7.4", "result": 365, "unit": "µg/mL"}]}
{"smiles": "C[C@@H](C[C@H](NC(=O)c1ncc(-c2ccc(F)cc2)s1)C(=O)NC(C)(C)Cc1ccc(F)cc1)C(=O)O", "note": "[Compound 2, (2S,4S)-4-[2-(4-Fluoro-phenyl)-1,1-dimethyl-ethylcarbamoyl]-4-{[5-(4-fluoro-phenyl)-thiazole-2-carbonyl]-amino}-2-methyl-butyric acid]", "values": [{"measurement": "pIC50", "setting": "[1]", "result": 7.33}, {"measurement": "solubility", "setting": "Solubility pH7.4", "result": 912, "unit": "µg/mL"}]}
{"smiles": "COc1cc(CNC(=O)[C@H](CC(C)C(=O)O)NC(=O)c2ccc(-c3ccccc3)cc2)cc(OC)c1OC", "note": "(mixture of isomers) [Compound 1, 4-[(Biphenyl-4-carbonyl)-amino]-2-methyl-4-(3,4,5-trimethoxy-benzylcarbamoyl)-butyric acid]", "values": [{"measurement": "pIC50", "setting": "[1]", "result": 7.89}, {"measurement": "solubility", "setting": "Solubility pH7.4", "result": 850, "unit": "µg/mL"}]}
{"smiles": "CC(C)(Cc1ccc(F)cc1)NC(=O)[C@H](C[C@H](Cc1ccccc1)C(=O)O)NC(=O)c1ccc(-c2ccccc2)cc1", "note": "[Compound 6, (2S,4S)-2-Benzyl-4-[(biphenyl-4-carbonyl)-amino]-4-[2-(4-fluoro-phenyl)-1,1-dimethyl-ethylcarbamoyl]-butyric acid]", "values": [{"measurement": "pIC50", "setting": "[1]", "result": 6.82}, {"measurement": "solubility", "setting": "Solubility pH7.4", "result": 60, "unit": "µg/mL"}]}
{"smiles": "C[C@@H](C[C@H](NC(=O)C1CCN(c2ccc(F)cc2)CC1)C(=O)NC(C)(C)Cc1ccc(F)cc1)C(=O)O", "note": "[Compound 12, (2S,4S)-4-[2-(4-Fluoro-phenyl)-1,1-dimethyl-ethylcarbamoyl]-4-{[1-(4-fluoro-phenyl)-piperidine-4-carbonyl]-amino}-2-methyl-butyric acid]", "values": [{"measurement": "pIC50", "setting": "[1]", "result": 6.49}, {"measurement": "solubility", "setting": "Solubility pH7.4", "result": 743, "unit": "µg/mL"}]}
{"smiles": "C[C@@H](C[C@H](NC(=O)c1ccc(-c2ccccn2)cc1)C(=O)NC(C)(C)Cc1ccc(F)cc1)C(=O)O", "note": "[Compound 10, (2S,4S)-4-[2-(4-Fluoro-phenyl)-1,1-dimethyl-ethylcarbamoyl]-2-methyl-4-(4-pyridin-2-yl-benzoylamino)-butyric acid]", "values": [{"measurement": "pIC50", "setting": "[1]", "result": 6.72}, {"measurement": "solubility", "setting": "Solubility pH7.4", "result": 883, "unit": "µg/mL"}]}
{"smiles": "C[C@@H](C[C@H](NC(=O)c1cnc(-c2ccc(F)cc2)s1)C(=O)NC(C)(C)Cc1ccc(F)cc1)C(=O)O", "note": "[Compound 20, (2S,4S)-4-[2-(4-Fluoro-phenyl)-1,1-dimethyl-ethylcarbamoyl]-4-{[2-(4-fluoro-phenyl)-thiazole-5-carbonyl]-amino}-2-methyl-butyric acid]", "values": [{"measurement": "pIC50", "setting": "[1]", "result": 5.85}, {"measurement": "solubility", "setting": "Solubility pH7.4", "result": 493, "unit": "µg/mL"}]}
{"smiles": "C[C@@H](C[C@H](NC(=O)c1ccc(-c2ccccc2)cc1)C(=O)NC(C)(C)Cc1cccnc1)C(=O)O", "note": "[Compound 4, (2S,4S)-4-[(Biphenyl-4-carbonyl)-amino]-4-(1,1-dimethyl-2-pyridin-3-yl-ethylcarbamoyl)-2-methyl-butyric acid]", "values": [{"measurement": "pIC50", "setting": "[1]", "result": 7.18}]}
{"smiles": "C[C@@H](C[C@H](NC(=O)c1ccc(-c2ccccc2)cc1F)C(=O)NC(C)(C)Cc1ccc(F)cc1)C(=O)O", "note": "[Compound 11, (2S,4S)-4-[(3-Fluoro-biphenyl-4-carbonyl)-amino]-4-[2-(4-fluoro-phenyl)-1,1-dimethyl-ethylcarbamoyl]-2-methyl-butyric acid]", "values": [{"measurement": "pIC50", "setting": "[1]", "result": 6.60}, {"measurement": "solubility", "setting": "Solubility pH7.4", "result": 648, "unit": "µg/mL"}]}
{"smiles": "C[C@@H](Cc1ccc(F)cc1)NC(=O)[C@H](C[C@H](C)C(=O)O)NC(=O)c1ccc(-c2ccccc2)cc1", "note": "(single isomer, unassigned) [Compound 3]", "values": [{"measurement": "pIC50", "setting": "[1]", "result": 7.21}, {"measurement": "solubility", "setting": "Solubility pH7.4", "result": 159, "unit": "µg/mL"}]}
{"smiles": "C[C@@H](C[C@H](NC(=O)c1ccc(-c2ccccc2)nc1)C(=O)NC(C)(C)Cc1ccc(F)cc1)C(=O)O", "note": "[Compound 14, (2S,4S)-4-[2-(4-Fluoro-phenyl)-1,1-dimethyl-ethylcarbamoyl]-2-methyl-4-[(6-phenyl-pyridine-3-carbonyl)-amino]-butyric acid]", "values": [{"measurement": "pIC50", "setting": "[1]", "result": 6.46}, {"measurement": "solubility", "setting": "Solubility pH7.4", "result": 775, "unit": "µg/mL"}]}
{"smiles": "C[C@@H](C[C@H](NC(=O)N1CCC(c2ccccc2)CC1)C(=O)NC(C)(C)Cc1ccc(F)cc1)C(=O)O", "note": "[Compound 18, (2S,4S)-4-[2-(4-Fluoro-phenyl)-1,1-dimethyl-ethylcarbamoyl]-2-methyl-4-[(4-phenyl-piperidine-1-carbonyl)-amino]-butyric acid]", "values": [{"measurement": "pIC50", "setting": "[1]", "result": 5.92}, {"measurement": "solubility", "setting": "Solubility pH7.4", "result": 805, "unit": "µg/mL"}]}
